# Assay results: US10204708B2, “System and method for deriving parameters for homeostatic feedback control of an individual” (Agency for Science, Technology and Research, priority 2012, dated 2019)
# Experiments:
# Assay type in all cases: in vivo, human
# [1] = thyroid function test, free thyroxin [FT4] level of patient under treatment
# Source text: (§1) The method 10 is particularly suited to derive the hypothalamus pituitary (HP) characteristic of the individual. The HP characteristic of, the individual relates the level of thyroid-stimulating hormone [TSH] level in milliunits per liter (mU/L) and the corresponding free thyroxin [FT4] level in picomoles per liter (pmol/L) in the individual. In the following description, homeostatic measurements would be understood to refer to measurements of the level of [TSH] and corresponding [FT4] in an individual.
# (§2) Each homeostatic measurement comprises a value of a [TSH] reading and a corresponding [FT4] reading. To determine the S and φ parameters for the individual, at least two well distinguishable homeostatic, measurements (i.e. ([FT4]1, [TSH]1) and ([FT4]2, [TSH]2)) from the individual are obtained with a predetermined time gap in between each measurement. The measurements are performed on samples taken near the same time of the day by the same analytical measurement method and ideally applied by one and the same person whenever feasible to minimise errors that can compromise the accuracy of the model estimates.
# (§3) Preferably, the individual measurements are performed in a fasting condition and separated by 6 weeks while under medical treatment for a hypothyroidism or hyperthyroidism state with the replacement hormone for [T4] leading to a state of clinical euthyroidism.
# (§4) Any method known for measuring homeostatic parameters would be suitable, for example, various types of chromatography, immunochemistry or other methods known to accurately measure the amount of a homeostatic expression product, as long as the same measurement method is applied by one and the same person.
# [2] = thyroid function test, thyroid-stimulating hormone [TSH] level of patient under treatment
# Source text: as §1, §2, §3, §4
# [3] = clinical course of hypothyroid Graves' disease patient on L-thyroxin; details: Example 3 patient, 75 mcg L-T4 daily
# Source text: They were thus started on L-thyroxin from day 456 at 25 mcg daily, and escalated to 50 mcg daily from day 715.
# [4] = Example 1 patient, day 0, Rx CMZ 20
# [5] = Example 1 patient, day 53, Rx CMZ 10
# [6] = Example 1 patient, day 86, Rx CMZ 30
# [7] = Example 1 patient, day 125, Rx CMZ 10
# [8] = Example 1 patient, day 210, Rx LT4 50 (mcg daily), after radioiodine-131 ablation
# [9] = Example 1 patient, day 269, Rx LT4 50 (mcg daily)
# [10] = Example 6 patient, 1 Oct. 2007, LT4 100
# [11] = Example 6 patient, 2 May 1997, LT4 25
# [12] = Example 6 patient, 3 May 2005, LT4 75
# [13] = Example 6 patient, 5 Oct. 2005, LT4 100
# [14] = Example 6 patient, 6 May 2011, LT4 100
# [15] = Example 6 patient, 10 Dec. 2010, LT4 100
# [16] = Example 6 patient, 12 Feb. 2007, LT4 100
# [17] = Example 6 patient, 14 May 2007, LT4 100
# [18] = Example 6 patient, 16 Aug. 1999, LT4 50
# [19] = Example 6 patient, 16 Mar. 2012, LT4 100
# [20] = Example 6 patient, 17 Aug. 1998, LT4 50
# [21] = Example 6 patient, 19 Oct. 2006, LT4 100
# [22] = Example 6 patient, 21 Jun. 2006, LT4 100
# [23] = Example 6 patient, 23 Jan. 2006, LT4 100
# [24] = Example 6 patient, 24 Apr. 2002, LT4 50
# [25] = Example 6 patient, 26 Oct. 1999, LT4 50
# [26] = Example 6 patient, 28 Jul. 2008, LT4 100
structure (smiles),measurement,setting,value
"CCOC(=O)n1ccn(C)c1=S [CMZ, carbimazole]",FT4,[1]; [4],53.3 pmol/L
same,FT4,[1]; [5],12.5 pmol/L
same,FT4,[1]; [6],31.3 pmol/L
same,FT4,[1]; [7],11 pmol/L
same,TSH,[2]; [4],<0.01 mU/L
same,TSH,[2]; [5],<0.01 mU/L
same,TSH,[2]; [6],0.005 mU/L
same,TSH,[2]; [7],0.02 mU/L
"N[C@@H](Cc1cc(I)c(Oc2cc(I)c(O)c(I)c2)c(I)c1)C(=O)O [LT4, levothyroxin]",FT4,[1]; [8],5 pmol/L
same,FT4,[1]; [9],10 pmol/L
same,FT4,"[1]; Example 4 patient, radiation-induced thyroid failure, LT4 25 mcg once daily",about 10 pmol/L
same,FT4,[1]; [10],11 pmol/L
same,FT4,[1]; [11],11.5 pmol/L
same,FT4,[1]; [12],13 pmol/L
same,FT4,[1]; [13],16 pmol/L
same,FT4,[1]; [14],17 pmol/L
same,FT4,[1]; [15],18 pmol/L
same,FT4,[1]; [16],15 pmol/L
same,FT4,[1]; [17],14 pmol/L
same,FT4,[1]; [18],12 pmol/L
same,FT4,[1]; [19],15 pmol/L
same,FT4,[1]; [20],10.6 pmol/L
same,FT4,[1]; [21],12 pmol/L
same,FT4,[1]; [22],13 pmol/L
same,FT4,[1]; [23],14 pmol/L
same,FT4,[1]; [24],13 pmol/L
same,FT4,[1]; [25],14 pmol/L
same,FT4,[1]; [26],13 pmol/L
same,TSH,[2]; [8],9.05 mU/L
same,TSH,[2]; [9],0.12 mU/L
same,TSH,[2]; [10],4.34 mU/L
same,TSH,[2]; [11],8.64 mU/L
same,TSH,[2]; [12],6.67 mU/L
same,TSH,[2]; [13],1.10 mU/L
same,TSH,[2]; [14],0.99 mU/L
same,TSH,[2]; [15],0.41 mU/L
same,TSH,[2]; [16],2.65 mU/L
same,TSH,[2]; [17],1.72 mU/L
same,TSH,[2]; [18],4.96 mU/L
same,TSH,[2]; [19],2.20 mU/L
same,TSH,[2]; [20],8.71 mU/L
same,TSH,[2]; [21],2.43 mU/L
same,TSH,[2]; [22],1.48 mU/L
same,TSH,[2]; [23],2.18 mU/L
same,TSH,[2]; [24],2.32 mU/L
same,TSH,[2]; [25],3.03 mU/L
same,TSH,[2]; [26],3.12 mU/L
same,clinical outcome,[3],euthyroidism and resolution of all their hypothyroid symptoms
